Experimental data published in ChEMBL document CHEMBL1759941, “Discovery of pyrrolo[2,3-d]pyrimidin-4-ones as corticotropin-releasing factor 1 receptor antagonists with a carbonyl-based hydrogen bonding acceptor” (Bioorg Med Chem Lett, 2011).

Legend:
[1] = molecular target: T1, Corticotropin-releasing factor receptor 1 (Homo sapiens, UniProt P34998); assay: Displacement of ovine [125I]CRF from human CRF1 receptor expressed in CHO cells; type: cell-based
T1 sequence (P34998 whole entry): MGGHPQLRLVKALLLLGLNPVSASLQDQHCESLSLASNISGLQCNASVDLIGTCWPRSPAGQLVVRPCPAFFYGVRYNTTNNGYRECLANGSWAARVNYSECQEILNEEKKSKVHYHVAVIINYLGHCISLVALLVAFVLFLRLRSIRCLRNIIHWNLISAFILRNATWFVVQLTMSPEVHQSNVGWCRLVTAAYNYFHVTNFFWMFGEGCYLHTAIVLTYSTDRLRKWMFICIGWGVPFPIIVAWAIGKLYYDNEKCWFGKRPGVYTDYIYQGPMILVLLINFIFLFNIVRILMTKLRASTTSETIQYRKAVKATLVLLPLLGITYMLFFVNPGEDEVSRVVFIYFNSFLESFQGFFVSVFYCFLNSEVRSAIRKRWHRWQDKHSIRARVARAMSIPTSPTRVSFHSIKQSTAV

[2] = Ratio of drug uptake in brain to plasma of mouse at 30 mg/kg, po; type: ADME, organism-based; parameters: dose 30 mg/kg, route oral; conditions: read-out: BBB
[3] = tested on: Mus musculus; assay: Ex vivo displacement of [125I]-sauvagine from CRF1 receptor in mouse Olfactory bulb at 30 mg/kg, po administered 60 mins before mouse decapitation and measured after 2 hrs by gamma scintillation counting; type: functional
[4] = tested on: Mus musculus; assay: Ex vivo displacement of [125I]-sauvagine from CRF1 receptor in mouse frontal cortex at 30 mg/kg, po administered 60 mins before mouse decapitation and measured after 2 hrs by gamma scintillation counting; type: functional
[5] = tested on: Mus musculus; assay: Ex vivo displacement of [125I]-sauvagine from CRF1 receptor in mouse pituitary gland at 30 mg/kg, po administered 60 mins before mouse decapitation and measured after 2 hrs by gamma scintillation counting; type: functional

Row | IC50 [1] | Structure (SMILES) | also measured
1 | 7700 nM | CCN(CC)c1nc2c(c(-c3c(C)cc(C)cc3C)cn2C)c(=O)n1C | –
2 | 120 nM | CCCN(CCC)c1nc2c(c(-c3c(C)cc(C)cc3C)cn2C)c(=O)n1C | Kp [2]: 0.42; inhibition in vivo at 30 mg/kg [3]: 22%; inhibition in vivo at 30 mg/kg [4]: 35%; inhibition in vivo at 30 mg/kg [5]: 53%
3 | 970 nM | CCCCN(CCCC)c1nc2c(c(-c3c(C)cc(C)cc3C)cn2C)c(=O)n1C | –
4 | 140 nM | Cc1cc(C)c(-c2cn(C)c3nc(N(CC4CC4)CC4CC4)n(C)c(=O)c23)c(C)c1 | –
5 | 3800 nM | Cc1cc(C)c(-c2cn(C)c3nc(N4CCCCC4)n(C)c(=O)c23)c(C)c1 | –
6 | 1100 nM | CCCN(CCC)c1nc2c(c(-c3c(C)cc(C)cc3C)c(C)n2C)c(=O)n1C | –
7 | 3300 nM | CCCN(CCC)c1nc2c(c(-c3ccc(C)cc3C)c(C)n2C)c(=O)n1C | –
8 | 1600 nM | CCCN(CCC)c1nc2c(c(-c3ccc(C)cc3C)cn2C)c(=O)n1C | –
9 | 3100 nM | CCCN(CCC)c1nc2c(c(-c3c(OC)cc(OC)cc3OC)cn2C)c(=O)n1C | –
10 | 3000 nM | CCCN(CCC)c1nc2c(c(-c3ccc(OC)cc3OC)cn2C)c(=O)n1C | –
11 | 3000 nM | CCCN(CCC)c1nc2c(c(-c3ccc(C(F)(F)F)cc3C(F)(F)F)cn2C)c(=O)n1C | –
12 | 92 nM | CCC(CC)Oc1cc(C)nc(Oc2c(C)cc(C)cc2C)c1C | –
13 | 11 nM | CCCCN(CC)c1nc(C)nc2c1c(C)cn2-c1c(C)cc(C)cc1C [CP-154526] | –
